From article PMC12717519, “Chemical clues to infection: A pilot study on the differential secondary metabolite production during the life cycle of selected Cordyceps species” (IMA Fungus, 2025)
≈ marks a conversion by molar mass, not a printed value. Where two headings read alike, the source gives them in different places.

How the values were obtained:
[1] = tested on: Human endocervival adenocarcinoma (KB3.1); test: cells; format: cell-based
Description: (§1) Serial dilution assays were performed in 96-well microtiter plates to determine the minimum inhibitory concentrations (MICs) against a panel of yeasts, filamentous fungi, and bacteria, as well as the half-maximal inhibitory concentrations (IC50) against human cell lines, following our previously described protocol ([Charria-Girón et al. 2023]).

[2] = tested on: Mycobacterium smegmatis (ATCC 700084); test: MIC serial dilution assay; format: cell-based; details: serial dilution in 96-well microtiter plates, tested up to 67 µg/mL
Description: as §1

[3] = tested on: Mucor hiemalis (DSM 2656); test: MIC serial dilution assay; format: cell-based; details: serial dilution in 96-well microtiter plates, tested up to 67 µg/mL
Description: as §1

[4] = tested on: Escherichia coli (DSM 1116); test: MIC serial dilution assay; format: cell-based; details: serial dilution in 96-well microtiter plates, tested up to 67 µg/mL
Description: as §1

[5] = tested on: Pseudomonas aeruginosa (PA14); test: MIC serial dilution assay; format: cell-based; details: serial dilution in 96-well microtiter plates, tested up to 67 µg/mL
Description: as §1

[6] = tested on: Candida albicans (DSM 1665); test: MIC serial dilution assay; format: cell-based; details: serial dilution in 96-well microtiter plates, tested up to 67 µg/mL
Description: as §1

Mouse fibroblast (L929) = test: Cytotoxicity assay; format: cell-based; details: serial dilution in 96-well plates
[7] = Solubility in deuterated solvents (for NMR); format: physicochemical; details: observation during NMR sample preparation; deuterated solvents / deuterated DMSO
[8] = tested on: Bacillus subtilis (DSM 10); test: microbe, parasite or virus in culture; format: cell-based; details: serial dilution in 96-well microtiter plates, tested up to 67 µg/mL
Description: as §1

[9] = tested on: Staphylococcus aureus (DSM 346); test: microbe, parasite or virus in culture; format: cell-based
Description: as §1

[10] = tested on: beet armyworm (Spodoptera exigua, Lepidoptera); test: Virulence of purified compounds against beet armyworm larvae (injection); format: in vivo; details: larvae injected with 0.5 µL of DMSO dilutions (40 to 0.625 µg/mL), n = 6 per concentration, 25 °C
Description: To evaluate the virulence of purified compounds against beet armyworm larvae, beauveriolides I (4) and M (5) were selected based on availability, and cytochalasin D served as a positive control. […] Larvae were injected with 0.5 µL of each dilution (n = 6 per concentration), maintained at 25 °C for one week, and monitored daily to assess mortality. Saline ([…]) and DMSO served as negative controls.
For proof of concept, beauveriolides I (4) and M (5) were selected based on availability and tested following the spore-suspension protocol but considering only total mortality, with cytochalasin D, a mycotoxin commonly produced by Metarhizium spp., used as a positive control ([Kobmoo et al. 2024]).

[11] = tested on: Rhodotorula glutinis (DSM 10134); test: MIC serial dilution assay; format: cell-based; details: serial dilution in 96-well microtiter plates, tested up to 67 µg/mL
Description: as §1

[12] = tested on: Acinetobacter baumannii (DSM 30008); test: MIC serial dilution assay; format: cell-based; details: serial dilution in 96-well microtiter plates, tested up to 67 µg/mL
Description: as §1

[13] = tested on: Wickerhamomyces anomalus (DSM 6766); test: MIC serial dilution assay; format: cell-based; details: serial dilution in 96-well microtiter plates, tested up to 67 µg/mL
Description: as §1

[14] = tested on: Chromobacterium violaceum (DSM 30191); test: MIC serial dilution assay; format: cell-based; details: serial dilution in 96-well microtiter plates, tested up to 67 µg/mL
Description: as §1

[15] = tested on: Schizosaccharomyces pombe (DSM 70572); test: MIC serial dilution assay; format: cell-based; details: serial dilution in 96-well microtiter plates, tested up to 67 µg/mL
Description: as §1

[16] = KB3.1, serial dilution in 96-well plates, read-out: IC50
[17] = serial dilution in 96-well microtiter plates, tested up to 67 µg/mL
[18] = Homo sapiens, KB 3-1, KB3.1, serial dilution in 96-well plates, read-out: IC50
[19] = Mycolicibacterium smegmatis, ATCC700084, read-out: MIC
[20] = Mucor hiemalis, DSM2656, read-out: MIC
[21] = Escherichia coli, DSM1116, read-out: MIC
[22] = Pseudomonas aeruginosa, PA14, read-out: MIC
[23] = Candida albicans, DSM1665, read-out: MIC
[24] = Bacillus subtilis, DSM10, read-out: MIC
[25] = Staphylococcus aureus, DSM346, serial dilution in 96-well microtiter plates, tested up to 67 µg/mL, read-out: MIC
[26] = Chromobacterium violaceum, DSM30191, read-out: MIC

Molecule | IC50 [1, 16] [µM] | MIC [2] | MIC [3] | MIC [4] | MIC [5] | MIC [6] | IC50 (Mouse fibroblast (L929)) [µM] | MIC [8] | MIC [9, 17] | other results
CCCC[C@H](C)[C@@H]1CC(=O)N[C@@H](C)C(=O)N[C@@H](C)C(=O)N[C@H](CC(C)C)C(=O)O1 [Compound 3, Beauveriolide S] | > 36.5 | n.i. (No inhibition up to 67 µg/mL) | n.i. (No inhibition up to 67 µg/mL) | n.i. (No inhibition up to 67 µg/mL) | n.i. (No inhibition up to 67 µg/mL) | n.i. (No inhibition up to 67 µg/mL) | > 36.5 | n.i. (No inhibition up to 67 µg/mL) | – | solubility in deuterated solvents [7]: insoluble; MIC ([9]; DSM 346): 66.6 µg/mL (≈ 162 µM)
CCCC[C@H](C)[C@@H]1CC(=O)N[C@@H](C(C)C)C(=O)N[C@@H](C)C(=O)N[C@H](CC(C)C)C(=O)O1 [Compound 5, beauveriolide M] | > 36.5 | n.i. (No inhibition up to 67 µg/mL) | – | n.i. (No inhibition up to 67 µg/mL) | n.i. (No inhibition up to 67 µg/mL) | n.i. (No inhibition up to 67 µg/mL) | > 36.5 | n.i. (No inhibition up to 67 µg/mL) | n.i. (No inhibition up to 67 µg/mL) | insecticidal activity over 7 days ([10]; total mortality): no insecticidal
CCCC[C@H](C)[C@@H]1CC(=O)N[C@@H](Cc2c[nH]c3ccccc23)C(=O)N[C@@H](Cc2ccccc2)C(=O)N[C@H](CC(C)C)C(=O)O1 [Compound 7, beauveriolide Jb] | – | n.i. (No inhibition up to 67 µg/mL) | n.i. (No inhibition up to 67 µg/mL) | n.i. (No inhibition up to 67 µg/mL) | n.i. (No inhibition up to 67 µg/mL) | n.i. (No inhibition up to 67 µg/mL) | > 36.5 | n.i. (No inhibition up to 67 µg/mL) | n.i. (No inhibition up to 67 µg/mL) | IC50 [1]: 36.5 µM; MIC [11]: n.i. (No inhibition up to 67 µg/mL); MIC [12]: n.i. (No inhibition up to 67 µg/mL); MIC [13]: n.i. (No inhibition up to 67 µg/mL); MIC [14]: n.i. (No inhibition up to 67 µg/mL); MIC [15]: n.i. (No inhibition up to 67 µg/mL)
CC(=O)c1nccc2c1[nH]c1ccccc12 [Compound 11, 1-acetyl-β-carboline] | – | – | – | – | – | – | – | – | – | IC50 [1, 18]: > 36.5 µM; MIC [2, 19]: > 67 µg/mL; MIC [3, 20]: > 67 µg/mL; MIC [4, 21]: > 67 µg/mL; MIC [5, 22]: > 67 µg/mL; MIC [6, 23]: > 67 µg/mL; IC50 (Mouse fibroblast (L929); Mus musculus): > 36.5 µM; MIC [8, 24]: > 67 µg/mL; MIC [9, 25]: > 67 µg/mL
CC(=O)c1nc(C(=O)O)cc2c1[nH]c1ccccc12 [Compound 12, 1-acetyl-3-carboxy-β-carboline] | – | – | – | – | – | – | – | – | – | IC50 [1, 18]: > 36.5 µM; MIC ([11]; Rhodotorula glutinis, DSM10134, read-out: MIC): > 67 µg/mL; MIC ([12]; Acinetobacter baumannii, DSM30008, read-out: MIC): > 67 µg/mL; MIC [2, 19]: > 67 µg/mL; MIC [3, 20]: > 67 µg/mL; MIC [4, 21]: > 67 µg/mL; MIC ([13]; Hansenula anomala, DSM6766, read-out: MIC): > 67 µg/mL; MIC [14, 26]: > 67 µg/mL; MIC [5, 22]: > 67 µg/mL; MIC ([15]; Schizosaccharomyces pombe, DSM70572, read-out: MIC): > 67 µg/mL; MIC [6, 23]: > 67 µg/mL; IC50 (Mouse fibroblast (L929); Mus musculus): > 36.5 µM; MIC [8, 24]: > 67 µg/mL; MIC [9, 25]: > 67 µg/mL
C=C1[C@@H](C)[C@H]2[C@H](Cc3ccccc3)NC(=O)[C@]23[C@H](OC(C)=O)/C=C/[C@@](C)(O)C(=O)[C@@H](C)C/C=C/[C@H]3[C@@H]1O [cytochalasin D, reference compound] | – | – | – | – | – | – | – | – | – | total mortality (TM) by day 2 ([10]; concentration of the value not stated): 83%
CNC(C)C1CCC(N)C(OC2C(N)CC(N)C(OC3OCC(C)(O)C(NC)C3O)C2O)O1 (stereo not drawn) [gentamicin, reference compound] | – | – | – | – | – | – | – | – | – | MIC [4, 21]: 0.42 µg/mL (≈ 0.879 µM); MIC [14, 26]: 1.7 µg/mL (≈ 3.56 µM); MIC [5, 22]: 0.21 µg/mL (≈ 0.44 µM); MIC [9, 25]: 0.21 µg/mL (≈ 0.44 µM)
NC[C@H]1O[C@H](O[C@H]2[C@H](O)[C@@H](O[C@H]3O[C@H](CO)[C@@H](O)[C@H](N)[C@H]3O)[C@H](N)C[C@@H]2N)[C@H](O)[C@@H](O)[C@@H]1O [kanamycin, reference compound] | – | 1.70^K µg/mL | – | – | – | – | – | – | – | –
C[C@@H]1[C@H](O)[C@@H](C)/C=C/C=C/CC/C=C/C=C/C=C/C=C/C(O[C@H]2O[C@H](C)[C@@H](O)[C@H](N)[C@@H]2O)CC2O[C@](O)(CC(O)C(O)CCC(O)CC(O)CC(O)CC(=O)O[C@H]1C)CC(O)C2C(=O)O (stereo partly drawn) [nystatin, reference compound] | – | – | 8.30^N µg/mL | – | – | 8.3^N µg/mL | – | – | – | MIC [11]: 4.20^N µg/mL; MIC [13]: 16.6^N µg/mL; MIC [15]: 8.30^N µg/mL
CN(C)[C@@H]1C(O)=C(C(N)=O)C(=O)[C@@]2(O)C(O)=C3C(=O)c4c(O)cccc4[C@@](C)(O)[C@H]3[C@H](O)[C@@H]12 [oxytetracycline, reference compound] | – | – | – | – | – | – | – | – | – | MIC [8, 24]: 16.6 µg/mL (≈ 36.1 µM)
beauveriolide L [Compound 6] | > 36.5 | n.i. (No inhibition up to 67 µg/mL) | n.i. (No inhibition up to 67 µg/mL) | n.i. (No inhibition up to 67 µg/mL) | n.i. (No inhibition up to 67 µg/mL) | n.i. (No inhibition up to 67 µg/mL) | > 36.5 | n.i. (No inhibition up to 67 µg/mL) | n.i. (No inhibition up to 67 µg/mL) | –
cyclo-((S)-Pro-(R)-Ile) [Compound 9] | > 36.5 | n.i. (No inhibition up to 67 µg/mL) | n.i. (No inhibition up to 67 µg/mL) | n.i. (No inhibition up to 67 µg/mL) | n.i. (No inhibition up to 67 µg/mL) | n.i. (No inhibition up to 67 µg/mL) | > 36.5 | n.i. (No inhibition up to 67 µg/mL) | n.i. (No inhibition up to 67 µg/mL) | MIC [11]: n.i. (No inhibition up to 67 µg/mL); MIC [12]: n.i. (No inhibition up to 67 µg/mL); MIC [13]: n.i. (No inhibition up to 67 µg/mL); MIC [14]: n.i. (No inhibition up to 67 µg/mL); MIC [15]: n.i. (No inhibition up to 67 µg/mL)
cyclo-((S)-Pro-(R)-Leu) [Compound 8] | > 36.5 | n.i. (No inhibition up to 67 µg/mL) | n.i. (No inhibition up to 67 µg/mL) | n.i. (No inhibition up to 67 µg/mL) | n.i. (No inhibition up to 67 µg/mL) | n.i. (No inhibition up to 67 µg/mL) | > 36.5 | n.i. (No inhibition up to 67 µg/mL) | n.i. (No inhibition up to 67 µg/mL) | MIC [11]: n.i. (No inhibition up to 67 µg/mL); MIC [12]: n.i. (No inhibition up to 67 µg/mL); MIC [13]: n.i. (No inhibition up to 67 µg/mL); MIC [14]: n.i. (No inhibition up to 67 µg/mL); MIC [15]: n.i. (No inhibition up to 67 µg/mL)
cyclo-((S)-Val-(R)-Val) [Compound 10] | > 36.5 | n.i. (No inhibition up to 67 µg/mL) | n.i. (No inhibition up to 67 µg/mL) | n.i. (No inhibition up to 67 µg/mL) | n.i. (No inhibition up to 67 µg/mL) | n.i. (No inhibition up to 67 µg/mL) | > 36.5 | n.i. (No inhibition up to 67 µg/mL) | n.i. (No inhibition up to 67 µg/mL) | –
